From US20260335314A1, “CRYSTALLINE SALTS OR AMORPHOUS FORMS OF 2-((1H-PYRAZOL-3-YL)METHYL)-6-((6-AMINOPYRIDIN-2-YL)METHYL)-4-METHYL-4,6-DIHYDRO -5H-THIAZOLO[5',4':4,5]PYRROLO[2,3-D]PYRIDAZIN-5-ONE” (Agios Pharmaceuticals, Inc., priority 2023, published 2026)
Values after ≈ are worked out from the molar mass of the structure shown.

Tests used:
[1] = Pharmacokinetics / absolute bioavailability in male Sprague Dawley rats; format: in vivo; settings: for AUC(0-inf): rat; for AUC(0-inf) / AUCinf: plasma
Experimental: Twenty-one (21) male Sprague Dawley rats (purchased from Shanghai Laboratory Animal Center Co., Ltd., Shanghai, China) were randomized into 7 groups (3 animals per group). The animals fasted overnight, the forms of Compound 1 shown in Table 7 were administered by oral gavage, and the animals were fed 4 hours post-dose.
Blood was serially collected from each animal at 0 (pre-dose), 0.083, 0.25, 0.5, 1, 2, 4, 8, and 24 h post-dose. For each collection, the animal was restrained manually, and approximately 150 μL of blood sample was collected via the tail vein into K2EDTA tubes. Plasma samples were stored at approximately −70° C. until analysis.
To enable the calculation of absolute bioavailability, Compound 1 was formulated as a solution in 10% N-methyl-2-pyrrolidone, 10% Solutol HS 15, and 80% saline and administered at 1 mg/kg as intravenous (IV) bolus dose to a separate group of male Sprague Dawley rats, and blood samples were collected at similar timepoints to those shown above. Further, plasma samples were obtained from the collected samples and stored at approximately −70° C. until analysis.
The concentration of Compound 1 in the plasma samples was determined by LC-MS/MS analysis.
A 20 μL aliquot of each plasma sample was mixed with 200 μL of acetonitrile containing glipizide as an internal standard (40 ng/mL). The resulting mixture was vortexed at 1500 rpm for 2 min and centrifuged at 5800 rpm for 10 min. A 1 μL sample from the supernatant was injected into LC-MS/MS.
LC-MS/MS analysis was conducted on a UPLC/MS-MS (API 6500+) system under the conditions outlined in Table 8
The absolute bioavailability of each form of Compound 1 was determined by dividing the AUCinf of the form in question by the AUCinf obtained historical data by IV administration of Compound 1.

[2] = Kinetic solubility in biorelevant media; format: physicochemical
Experimental: (§1) Solubility samples were prepared by weighing about 10 mg of each salt and adding 1 mL of media and vortexed briefly to obtain suspensions. […] For such instances, the solubility is calculated as greater than (>).
(§2) The sample vials were capped and wrapped in aluminum foil, and placed on a shaker at 37° C. The shaker was set at about 100 rpm and vials were removed at specified time points. The vials were observed, and the supernatants were transferred to Eppendorf tubes and centrifuged at 3K for 10 minutes. The clear supernatants were transferred to HPLC vials. The samples were diluted prior to HPLC analysis using the dilution media by 2× or used without dilution. pH was measured of the 24 hour timepoint after centrifugation using a micro pH probe.
• pH 2 buffer USP: Mixed 50 mL of 0.2M potassium chloride and 13 mL 0.2M HCl, diluted to 200 mL with water. • pH 4.5 buffer USP: 5.44 g of potassium dihydrogen phosphate was diluted to 1000 mL with water. • pH 6.8 buffer USP: Mixed 50 mL of 0.2M potassium phosphate and 22.4 mL 0.2M sodium hydroxide. Diluted with water to 200 mL. • SGF: 2.0109 g of NaCl was dissolved in water, added 7 mL of conc. HCl and diluted to 1 L. • FeSSIF: 4.0321 g of NaOH and 11.8726 g of NaCl were dissolved in water, added 8.65 mL of glacial acetic acid, […] 0.4247 g of NaOH, 3.9548 g of sodium phosphate monobasic monohydrate and 6.1900 g of NaCl were dissolved in water, adjusted the pH to 6.5 and diluted to 1 L.
(§3) Kinetic solubility was determined in biorelevant media. At each time point, the solution was analyzed by HPLC. The solid residue was analyzed by XRPD at selected time points. The pH of the solution was measured at 24 hours.

[3] = Dynamic vapor sorption (moisture uptake); format: physicochemical; settings: 25° C.
Experimental: Dynamic Vapor Sorption (DVS) was carried out using a TA Instruments Q5000 Dynamic Vapor Sorption analyzer. The instrument was calibrated with standard weights and a sodium bromide standard for humidity. Approximately 10-25 mg of sample was loaded into a metal-coated quartz pan for analysis. […] The movement from one step to the next occurred either after satisfying the equilibrium criterion of 0.01% weight change or, if the equilibrium criterion was not met, after one hour. The percent weight change values were calculated using Microsoft Excel®.

pH solubility in buffers = format: physicochemical; settings: for pH (24 h): pH of solution at 24 h; for solubility / solubility at 2 h: 37 °C
Experimental: as §1, §2
• pH 2 buffer USP: Mixed 50 mL of 0.2M potassium chloride and 13 mL 0.2M HCl, diluted to 200 mL with water. • pH 4.5 buffer USP: 5.44 g of potassium dihydrogen phosphate was diluted to 1000 mL with water. • pH 6.8 buffer USP: Mixed 50 mL of 0.2M potassium phosphate and 22.4 mL 0.2M sodium hydroxide. Diluted with water to 200 mL. • SGF: 2.0109 g of NaCl was dissolved in water, added 7 mL of conc. HCl and diluted to 1 L. • FeSSIF: 4.0321 g of NaOH and 11.8726 g of NaCl were dissolved in water, added 8.65 mL of glacial acetic acid, adjusted the pH to 5.0 and diluted to 1 L. • FaSSIF: 0.4247 g of NaOH, 3.9548 g of sodium phosphate monobasic monohydrate and 6.1900 g of NaCl were dissolved in water, adjusted the pH to 6.5 and diluted to 1 L.
(§4) At each time point, the solution was analyzed by HPLC and residue was vacuum dried and analyzed by XRPD. The pH of the solution was measured at 24 hours.

[4] = XRPD of solid residue from solubility samples (salt disproportionation); format: physicochemical; settings: FaSSIF residue
Experimental: as §4, §3

[5] = from 5% to 95% relative humidity
[6] = from 2% to 95% relative humidity

## Cn1c2nc(Cc3cc[nH]n3)sc2c2cnn(Cc3cccc(N)n3)c(=O)c21 [Compound 1, 2-((1H-pyrazol-3-yl)methyl)-6-((6-aminopyridin-2-yl)methyl)-4-methyl-4,6-dihydro-5H-thiazolo[5′,4′:4,5]pyrrolo[2,3-d]pyridazin-5-one]
[1]; IV administration (historical), 1 mg/kg, reference
  Absolute % F: 100%
[1]; iv, 1 mg/kg, IV bolus (historical)
  AUC(0-inf): 1560 ng·h/mL

## Cn1c2nc(Cc3cc[nH]n3)sc2c2cnn(Cc3cccc(N)n3)c(=O)c21 [Form B]
[2]; FaSSIF pH 6.5, 10 min, 37 °C, 10 min
  solubility: 0.38 (suspect) mg/mL
[2]; FaSSIF pH 6.5, 30 min, 37 °C, 30 min
  solubility: 0.36 (suspect) mg/mL
[2]; FaSSIF pH 6.5, 1 h, 37 °C, 60 min
  solubility: 0.24 mg/mL (≈ 612 µM)
[2]; FaSSIF pH 6.5, 2 h, 37 °C, 120 min
  solubility: 0.57 mg/mL (≈ 1450 µM)
[2]; FaSSIF pH 6.5, 4 h, 37 °C, 240 min
  solubility: 1.40 (suspect) mg/mL
[2]; FaSSIF pH 6.5, 24 h, 37 °C, 1440 min
  solubility: 0.70 mg/mL (≈ 1780 µM)
[2]; FaSSIF pH 6.5, pH of solution at 24 h
  pH (24 h): 3.39
[2]; FeSSIF pH 5.0, 1 h, 37 °C, 60 min
  solubility: 0.08 mg/mL (≈ 204 µM)
[2]; FeSSIF pH 5.0, pH of solution at 24 h
  pH (24 h): 4.79
[2]; SGF pH 1.2, pH of solution at 24 h
  pH (24 h): 1.0
[2]; fessif, pH 5, FeSSIF pH 5.0, 10 min, 37 °C
  solubility at 10 min: 340 µg/mL (≈ 866 µM)
[2]; fessif, pH 5, FeSSIF pH 5.0, 30 min, 37 °C
  solubility at 0.5 h: 130 µg/mL (≈ 331 µM)
[2]; fessif, pH 5, FeSSIF pH 5.0, 2 h, 37 °C
  solubility at 2 h: 110 µg/mL (≈ 280 µM)
[2]; fessif, pH 5, FeSSIF pH 5.0, 4 h, 37 °C
  solubility at 4 h: 100 µg/mL (≈ 255 µM)
[2]; fessif, pH 5, FeSSIF pH 5.0, 24 h, 37 °C
  solubility at 24 h: 60 µg/mL (≈ 153 µM)
[2]; sgf, pH 1.2, SGF pH 1.2, 37 °C, dissolved instantly, from total volume of media added, read-out: solubility
  solubility: > 10 mg/mL
[2]; simulated gastric fluid (SGF)
  dissolution in SGF: dissolved instantly
[3]; [5]
  moisture uptake (DVS): about 0.9%
pH solubility in buffers; 0.1N HCl
  dissolution in 0.1N HCl: dissolved instantly
pH solubility in buffers; 0.1 N HCl
  pH (24 h): 1.44
pH solubility in buffers; 0.1 n hcl, dissolved instantly, estimated by adding 100 uL aliquots, read-out: solubility
  solubility: > 16.7 mg/mL
pH solubility in buffers; pH 2 (USP), 2 h, 120 min
  solubility: 2.59 mg/mL (≈ 6600 µM)
pH solubility in buffers; pH 2 (USP), 24 h, 1440 min
  solubility: 2.40 mg/mL (≈ 6120 µM)
pH solubility in buffers; pH 2 (USP)
  pH (24 h): 2.26
pH solubility in buffers; pH 4.5 (USP), 24 h, 1440 min
  solubility: 0.27 mg/mL (≈ 688 µM)
pH solubility in buffers; pH 4.5 (USP)
  pH (24 h): 4.01
pH solubility in buffers; pH 6.8 (USP), 24 h, 1440 min
  solubility: 0.01 mg/mL (≈ 25.5 µM)
pH solubility in buffers; pH 6.8 (USP)
  pH (24 h): 5.09
pH solubility in buffers; ph 4.5 buffer (usp), pH 4.5, pH 4.5 (USP), 2 h
  solubility at 2 h: 70 µg/mL (≈ 178 µM)
pH solubility in buffers; ph 6.8 buffer (usp), pH 6.8, pH 6.8 (USP), 2 h
  solubility at 2 h: 30 µg/mL (≈ 76.4 µM)
[1]; oral gavage, 10 mg/kg
  absolute bioavailability, comparison with other forms: higher than the measured bioavailability of the other forms of Compound 1
[1]; oral gavage, 10 mg/kg, fasted overnight
  AUCinf: 10846 ng·h/mL
[1]; oral gavage, 10 mg/kg, vs historical IV AUCinf, 10 mg/kg
  Absolute % F: 70%
[4]
  salt disproportionation by XRPD: some salt remained

## Cn1c2nc(Cc3cc[nH]n3)sc2c2cnn(Cc3cccc(N)n3)c(=O)c21 [Form D-1]
[3]; [5]
  moisture uptake (DVS): about 2.8%

## Cn1c2nc(Cc3cc[nH]n3)sc2c2cnn(Cc3cccc(N)n3)c(=O)c21 [Form D-2]
[3]; [6]
  moisture uptake (DVS): about 1.1%

## Cn1c2nc(Cc3cc[nH]n3)sc2c2cnn(Cc3cccc(N)n3)c(=O)c21 [Form E]
[3]; [5]
  moisture uptake (DVS): about 1.3%
[1]; oral gavage, 10 mg/kg, fasted overnight, listed as Free Base Hydrate Form E (wet milled)
  AUCinf: 7378 ng·h/mL
[1]; oral gavage, 10 mg/kg, vs historical IV AUCinf, listed as Free Base Hydrate Form E (Unmilled), 10 mg/kg
  Absolute % F: 45%
[1]; oral gavage, 10 mg/kg, vs historical IV AUCinf, listed as Free Base Hydrate Form E (wet milled), 10 mg/kg
  Absolute % F: 47%
[1]; po, 10 mg/kg, oral gavage, fasted overnight
  AUC(0-inf): 6960 ng·h/mL

## Cn1c2nc(Cc3cc[nH]n3)sc2c2cnn(Cc3cccc(N)n3)c(=O)c21.O=C(O)C(O)C(O)C(=O)O [Form I]
[3]; [6]
  moisture uptake (DVS): about 10.5%
